Test results taken from patent US7563792B2, “Biguanide and dihydrotriazine derivatives” (priority 2002, dated 2009).

Assays:
[1] = system: Plasmodium berghei (KBG strain); assay: Mouse malaria model (modified Thomson model), percent survival; type: in vivo, CD-1 mice; conditions: twice a day for 3 days from day 3 post infection, orally or subcutaneously (route not stated), P. berghei infected mice
Experimental: Seven (7) mice are typically used in each experimental group. The mice are housed 3 to 4 per cage and are maintained at a temperature of […] with a 12-hour day light cycle. The mice are fed a standard Ralston Purina® mouse chow and given water ad. lib. Their cages and water bottles were changed twice a week.
Preparation of the test compounds oral administration involved grinding the material with a mortar and pestle before diluting in 0.5% hydroxyethylcellulose-Tween 80 (polyoxyethylene (20) sorbitan mono-oleate) for oral administration. For subcutaneous administration, the test compounds were suspended in peanut oil.
The mice were infected intraperitoneally with 50,000 red blood cells infected with a drug-sensitive strain of Plasmodium berghei (KBG strain) on day 0. The inoculum was obtained from a donor mouse having a parasitemia between 5% and 10%.
The compounds were administered according to the weight of the mice. The mice were weighed each day before the drugs were administered. Test compounds are given in a volume of 10 ml/kg of body weight. Compounds were administered either orally or subcutaneously twice a day (6 hours apart) for 3 days starting on the 3rd day post infection. Blood films were taken on day 6 post-infection and twice weekly for 30 days. The level of parasites (parasitemia) was determined from the Giemsa stained blood films.
Antimalarial activity was quantified by a percent survival calculated for each treated group on Day 31.

Mycobacterium avium = assay: In vitro MIC against Mycobacterium avium isolates, microtiter plate, turbidity; type: cell-based; conditions: 18 to 21 days
[2] = system: Mycobacterium tuberculosis; assay: In vitro MIC against Mycobacterium tuberculosis, microtiter plate, turbidity; type: cell-based; conditions: Mycobacterium tuberculosis strain Erdmann; 37° C., 18 to 21 days
Experimental: Antituberculosis activities were assessed in vitro using the biologically active dihydrotriazine metabolites of the imidodicarbonimidic diamides. The assay methodology is detailed as follows:
To tissue culture treated 96-well microtiter plates were added 20 μl of a solution of test compound. The plates were allowed to dry in an incubator at a temperature between 50° to 60° C. for 20 to 30 minutes. Then the plates were subjected to UV light for 15 minutes to kill bacteria. The plates were generally used within 2-3 days of being made. To each well was added 100 μl of culture broth and the appropriate strain of Mycobacterium tuberculosis or Mycobacterium avium. The plates were then incubated at 37° C. for between 18 days to 21 days. Growth was assessed by turbidity measurement and MICs reported in μg/ml.

| Compound | % SURVIVAL AT DAY 31 ([1]; dose 4 mg/kg) [%] | % SURVIVAL AT DAY 31 ([1]; dose 8 mg/kg) [%] | % SURVIVAL AT DAY 31 ([1]; dose 16 mg/kg) [%] | % SURVIVAL AT DAY 31 ([1]; dose 32 mg/kg) [%] | % SURVIVAL AT DAY 31 ([1]; dose 64 mg/kg) [%] | MIC (Mycobacterium avium; Mycobacterium avium strain 101, 37° C.) [µg/mL] | MIC (Mycobacterium avium; Mycobacterium avium strain 3404-4, 37° C.) [µg/mL] | MIC (Mycobacterium avium; Mycobacterium avium strain Farino, 37° C.) [µg/mL] | MIC (Mycobacterium avium; Mycobacterium avium strain LPR, 37° C.) [µg/mL] | MIC [2] [µg/mL] |
| --- | --- | --- | --- | --- | --- | --- | --- | --- | --- | --- |
| 1-(3-(4-trifluoromethoxyphenoxy)propyloxy)-5-isopropyl biguanide hemisuccinate [Compound of Example 5] | 0 | 14 | 86 | 100 | 100 |  |  |  |  |  |
| Cl.N=C(NOCCCOc1ccc(OC(F)(F)F)cc1)NC(=N)NC1CC1 [Compound of Example 6, 1-(3-(4-trifluoromethoxyphenoxy)propyloxy)-5-cyclopropylbiguanide hydrochloride] | 0 | 14 | 43 | 71 | 100 |  |  |  |  |  |
| CC1(C)NC(=N)NC(=N)N1OCCCOc1ccc(OC(F)(F)F)cc1.Cl [Metabolite of Compound of Example 5, 6,6-Dimethyl-1-[3-(4-trifluoromethoxy-phenoxy)-propoxy][1,3,5]triazinane-2,4-diylidenediamine hydrochloride] |  |  |  |  |  | 3.1 | 0.6 ± 0.3 | 1 ± 0.85 | 37.5 ± 17.7 | 19 |
